Values after ≈ are worked out from the molar mass of the structure shown. Like-named read-outs stand apart in the source and are kept apart here.
Assays:
[1] = tested on: HTLV-IIIB; experiment: Inhibitory effect on the destruction of T-cells due to HIV (MTT), HTLV-IIIB; type: cell-based, HIV (human immunodeficiency virus); details: MT-4 cells
Description: (§1) 1. Inhibitory effect on the destruction of T-cells due to HIV
(§2) Various concentrations of 3,3'-[1,10-decanediyl-bis(carbonylamino)]-bis(1,5-naphthalenedisulfonc acid) were added to each medium suspended 1×10^5 cells/ml of MT-4 cells, which was infected with HTLV-IIIB or HIV-1HE. Infection was made at an infection number of MOI=0.02. Then, after cultured for 4 days at 37° C., the number of surviving cells was quantitatively determined by dyeing surviving cells with MTT dye. Moreover, at the same time, by dyeing also non-infected cells with MTT dye, the toxicity of sample to cells was calculated.

[2] = tested on: HIV-1HE; experiment: Inhibitory effect on the destruction of T-cells due to HIV (MTT), HIV-1HE; type: cell-based, HIV (human immunodeficiency virus); details: MT-4 cells
Description: as §1, §2

[3] = Toxicity of sample to non-infected cells (MTT); type: cell-based; details: human, mt-4 cells, non-infected MT-4 cells, read-out: CC50 = 50% toxic concentration
Description: as §2

[4] = tested on: MOLT-4 cells infected with HTLV-IIIB; experiment: Inhibition of the formation of giant cells; type: cell-based; details: co-culture of HTLV-IIIB infected and non-infected MOLT-4 cells, 24 hours, counted under microscope
Description: 3. Inhibition of the formation of giant cells
MOLT-4 cells infected with HTLV-IIIB and MOLT-4 cells without infection were cultured each in same number (5×10^4) in medium with 3,3'-[1,10-decanediyl-bis(carbonylamino)]-bis(1,5-naphthalenedisulfonic acid) added and, after cultured for 24 hours, the number of giant cells formed was counted under microscope.

[5] = tested on: bone marrow cells; details: background statement; cited from earlier work
[6] = Human immunodeficiency virus 1, MT4, 96 h, MOI=0.02, 4 days at 37° C., MTT, read-out: EC50 = Effective concentration for inhibition of 50% cells

| SMILES | EC50 [1, 6] [µg/mL] | T.I. = Selective toxicity (CC50 /EC50) [1] | EC50 [2, 6] [µg/mL] | T.I. = Selective toxicity (CC50 /EC50) [2] | CC50 at 96 h ([3]; HIV-1HE system (No. 2)) [µg/mL] | CC50 at 96 h ([3]; HTLV-IIIB system (No. 1)) [µg/mL] | inhibitory activity against formation of giant cells [4] | side effects [5] |
| --- | --- | --- | --- | --- | --- | --- | --- | --- |
| O=C(CCCCCCCCCCC(=O)Nc1cc(S(=O)(=O)O)c2cccc(S(=O)(=O)O)c2c1)Nc1cc(S(=O)(=O)O)c2cccc(S(=O)(=O)O)c2c1 [3,3'-[1,10-decanediyl-bis(carbonylamino)]-bis(1,5-naphthalenedisulfonic acid)] | 46 (≈ 57.4 µM) | 8.3 | 40.7 (≈ 50.8 µM) | 12.3 | 500 (≈ 624 µM) | 383 (≈ 478 µM) | recognized |  |
| Cc1cn([C@H]2C[C@H](N=[N+]=[N-])[C@@H](CO)O2)c(=O)[nH]c1=O [AZT, azido thymidine] |  |  |  |  |  |  |  | inhibition of the growth of bone marrow cells |

Source: patent publication US5264621A, “Anti-virus agent” (Sanyo-Kokusaku Pulp Co., Ltd., priority 1991, dated 1993)
